Patent US9839642B2, “Beta-tetrazolyl-propionic acids as metallo-beta-lactamase inhibitors” (priority 2014, dated 2017)
Read-outs that look alike come from different tables or passages of the source.

What was measured:
[1] = test system: Klebsiella pneumoniae expressing VIM-1 (IHMA599644); assay: Antibiotic potentiation activity: synergistic concentration (MITC95) with imipenem, growth by OD600; format: cell-based
How it was run: (§1)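 Strains grown overnight at 35° C, resuspended in saline, diluted 1:100 into 1.1×CAMHB; imipenem at 1 μg/ml or 4 μg/ml with test compound 200 μM to 0.195 μM. Incubated 22 hours to 24 hours at 35° C, OD600 read; MITC95 is lowest compound concentration inhibiting 95% of growth.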

[2] = test system: Serratia marcescens expressing IMP-1 (CL5741); assay: as above; format: cell-based
How it was run: as §1

[3] = test system: Escherichia coli expressing NDM-1 (CLB30005); assay: as above; format: cell-based; conditions: 95% inhibition of bacterial growth, strain CLB30005
How it was run: as §1

NDM-1 = NDM-1 (Klebsiella pneumoniae, UniProt C7C422); assay: Enzyme activity: determination of IC50, fluorescence assay with CCF2-FA substrate; format: biochemical; conditions: CCF2-FA 1.25 μM, 2 hours at 25° C.
How it was run: (§2)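 Enzyme (1 pM NDM-1, 2 pM IMP-1, 30 pM VIM-1) incubated with inhibitor (20 to 0.00063 μM) and 1.25 μM CCF2-FA in 100 mM KH2PO4 pH 7, 0.005% Tween-20, 10 μM ZnSO4, 2 h at 25 °C. Fluorescence read at 460 nm (ex 405 nm); IC50 by 4-parameter fit.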

VIM-1 = VIM-1 (Pseudomonas aeruginosa, UniProt A0A0F7KYQ8); assay: as above; format: biochemical; conditions: CCF2-FA 1.25 μM, 2 hours at 25° C., read-out: VIM1 IC50
How it was run: as §2

IMP-1 = IMP-1 (Serratia marcescens, UniProt P52699); assay: as above; format: biochemical; conditions: CCF2-FA 1.25 μM, 2 hours at 25° C., read-out: IMP1 IC50
How it was run: as §2

[4] = test system: Escherichia coli expressing NDM-1 (CLB30016); assay: Antibiotic potentiation activity: synergistic concentration (MITC95) with imipenem, growth by OD600; format: cell-based
How it was run: as §1

[5] = 95% inhibition of bacterial growth, strain IHMA599644
[6] = 95% inhibition of bacterial growth, strain CL5741
[7] = enzyme 1 pM, read-out: NDM1 IC50
[8] = K. pneumoniae IHMA599644 (VIM-1), 95% inhibition of growth
[9] = E. coli CLB30016 (NDM-1), 95% inhibition of growth
[10] = S. marcescens CL5741 (IMP-1), 95% inhibition of growth
[11] = NDM-1 enzyme 1 pM, read-out: NDM1 IC50
[12] = 95% inhibition of bacterial growth, strain CLB30016

IMP-1, sequence (P52699 19-246, looked up, species assumed): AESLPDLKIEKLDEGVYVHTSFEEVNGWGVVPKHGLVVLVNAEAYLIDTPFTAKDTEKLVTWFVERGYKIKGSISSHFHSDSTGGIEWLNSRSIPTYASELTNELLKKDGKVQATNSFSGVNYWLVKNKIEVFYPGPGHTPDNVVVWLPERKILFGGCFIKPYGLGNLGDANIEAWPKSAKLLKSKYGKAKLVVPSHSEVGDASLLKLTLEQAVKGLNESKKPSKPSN
NDM-1, sequence (C7C422 29-270, looked up, species assumed): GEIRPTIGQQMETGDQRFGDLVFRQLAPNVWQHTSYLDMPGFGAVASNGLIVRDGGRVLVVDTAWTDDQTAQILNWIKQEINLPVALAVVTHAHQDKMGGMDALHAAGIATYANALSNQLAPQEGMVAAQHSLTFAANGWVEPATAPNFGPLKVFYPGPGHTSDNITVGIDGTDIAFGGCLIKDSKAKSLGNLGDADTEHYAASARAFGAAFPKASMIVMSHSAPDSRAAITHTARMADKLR

Row | SMILES | VIM1 KP599644 MITC95 [1, 5] | IMP1 SM5741 MITC95 [2, 6] | NDM1 EC30005 MITC95 [3] | IC50 (NDM-1; [7]) | IC50 (VIM-1; enzyme 30 pM) | IC50 (IMP-1; enzyme 2 pM) | IC50 (NDM-1; NDM1 IC50, enzyme 1 pM) | VIM1 KP599644 MITC95 [1, 8] | NDM1 EC30016 MITC95 [4, 9] | IMP1 SM5741 MITC95 [2, 10] | IC50 (NDM-1; [11]) | IC50 (VIM-1; VIM-1 enzyme 30 pM) | IC50 (IMP-1; IMP-1 enzyme 2 pM) | NDM1 EC30016 MITC95 [4, 12]
1 | CCC[C@H](C(=O)O)[C@H](Cc1ccc(-c2ccc(N(C)C)nc2)cc1)c1nn[nH]n1 [Example 189, (2S)-2-[(1S)-2-{4-[6-(dimethylamino)pyridin-3-yl]phenyl}-1-(2H-tetrazol-5-yl)ethyl]pentanoic acid] | 100 µM | 7.8 µM | 2.3 µM | 13 nM | 4.3 nM | 29 nM |  |  |  |  |  |  |  | 
2 | CCC[C@H](C(=O)O)[C@H](Cc1ccc(-c2cccc(CN3CCCCC3)c2)cc1)c1nn[nH]n1 [Example 206, (2S)-2-[(1S)-2-[3′-(piperidin-1-ylmethyl)biphenyl-4-yl]-1-(2H-tetrazol-5-yl)ethyl]pentanoic acid] | 50 µM | 18.8 µM | 18.8 µM | 82 nM | 7.2 nM | 130 nM |  |  |  |  |  |  |  | 
3 | CC(C)[C@H](C(=O)O)[C@H](Cc1ccc(C2=CCNCC2)cc1)c1nnn[nH]1 [Example 59, (2S,3S)-2-isopropyl-4-(4-(1,2,3,6-tetrahydropyridin-4-yl)phenyl)-3-(1H-tetrazol-5-yl)butanoic acid] | 150 µM | 56.2 µM | 12.5 µM |  | 10 nM | 55 nM | 9 nM |  |  |  |  |  |  | 
4 | CCC[C@H](C(=O)O)[C@H](Cc1ccc(-c2ccc(N3CCOCC3)nc2)cc1)c1nn[nH]n1 [Example 203, (2S)-2-[(1S)-2-[4-(6-morpholin-4-ylpyridin-3-yl)phenyl]-1-(2H-tetrazol-5-yl)ethyl]pentanoic acid] | 200 µM | 9.4 µM | 9.4 µM | 14 nM | 4.3 nM | 60 nM |  |  |  |  |  |  |  | 
5 | CC(C)=CCCC(C(=O)O)[C@H](Cc1ccccc1)c1nnn[nH]1 (stereo in doubt) [Example 15, (2R)-6-methyl-2-[(1S)-2-phenyl-1-(1H-tetrazol-5-yl)ethyl]hept-5-enoic acid] | 200 µM | >200 µM | 15.6 µM | 380 nM | 120 nM | 4800 nM |  |  |  |  |  |  |  | 
6 | CCC[C@H](C(=O)O)[C@H](Cc1ccc(Cl)nc1)c1nnn[nH]1 [Example 82, (S)-2-((S)-2-(6-chloropyridin-3-yl)-1-(1H-tetrazol-5-yl)ethyl)pentanoic acid] | 25 µM | 200 µM | 6.2 µM | 240 nM | 5.7 nM | 4600 nM |  |  |  |  |  |  |  | 
7 | CCC[C@H](C(=O)O)[C@H](Cc1ccc(-c2ccncc2)cc1)c1nn[nH]n1 [Example 198, (2S)-2-[(1S)-2-(4-pyridin-4-ylphenyl)-1-(2H-tetrazol-5-yl)ethyl]pentanoic acid] | 18.8 µM | 6.2 µM | 6.2 µM | 14 nM | 1.2 nM | 75 nM |  |  |  |  |  |  |  | 
8 | CCC[C@H](C(=O)O)[C@H](Cc1ccc(-c2ccccc2CN2CCCCC2)cc1)c1nn[nH]n1 [Example 205, (2S)-2-[(1S)-2-[2′-(piperidin-1-ylmethyl)biphenyl-4-yl]-1-(2H-tetrazol-5-yl)ethyl]pentanoic acid] | >200 µM | 7.8 µM | 50 µM | 500 nM | 360 nM | 63 nM |  |  |  |  |  |  |  | 
9 | CC(C)C[C@H](C(=O)O)[C@H](Cc1ccc(Oc2ccccc2C2CCCN2)nc1)c1nn[nH]n1 (stereo partly drawn) [Example 376, (2S)-4-methyl-2-[(1S)-2-[6-(2-pyrrolidin-2-ylphenoxy)pyridin-3-yl]-1-(2H-tetrazol-5-yl)ethyl]pentanoic acid] |  |  |  |  |  |  |  | 50 µM | 25 µM | 25 µM | 77 nM | 4.6 nM | 660 nM | 
10 | CC(C)C[C@H](C(=O)O)[C@H](Cc1ccc(N2CC(CCN)C2)nc1)c1nnn[nH]1 [Example 326, (2S)-2-[(1S)-2-{6-[3-(2-aminoethyl)azetidin-1-yl]pyridin-3-yl}-1-(1H-tetrazol-5-yl)ethyl]-4-methylpentanoic acid] |  |  |  |  |  |  |  | 6.2 µM | 50 µM | >200 µM | 6400 nM | 29 nM | > 20000 nM | 
11 | CCC[C@H](C(=O)O)[C@H](Cc1cccc(N2CCNC(=O)C2)c1)c1nn[nH]n1 [Example 367, (2S)-2-[(1S)-2-[3-(3-oxopiperazin-1-yl)phenyl]-1-(2H-tetrazol-5-yl)ethyl]pentanoic acid] |  |  |  |  |  |  |  | >200 µM | >200 µM | >200 µM | 1400 nM | 260 nM | > 20000 nM | 
12 | CCC[C@H](C(=O)O)[C@H](Cc1ccncc1)c1nnn[nH]1 [Example 88, (2S)-2-[(1S)-2-pyridin-4-yl-1-(1H-tetrazol-5-yl)ethyl]pentanoic acid] | 6.2 µM | 37.5 µM |  | 180 nM | 5.6 nM | 2000 nM |  |  |  |  |  |  |  | 0.78 µM
13 | CCC[C@H](C(=O)O)[C@H](Cc1ccc(-c2ccc(CC3CCNCC3)cc2)cc1)c1nn[nH]n1 [Example 301, (2S)-2-[(1S)-2-[4′-(piperidin-4-ylmethyl)biphenyl-4-yl]-1-(2H-tetrazol-5-yl)ethyl]pentanoic acid] |  |  |  |  |  |  |  | 100 µM | 12.5 µM | 2.3 µM | 43 nM | 31 nM | 68 nM | 
14 | CCC[C@H](C(=O)O)[C@H](Cc1cccc(-c2cccc(C(N)=O)c2)c1)c1nn[nH]n1 [Example 341, (2S)-2-[(1S)-2-(3′-carbamoylbiphenyl-3-yl)-1-(2H-tetrazol-5-yl)ethyl]pentanoic acid] |  |  |  |  |  |  |  | 18.8 µM | 18.8 µM | 2.3 µM | 6.6 nM | 0.99 nM | 110 nM | 
15 | CCC[C@H](C(=O)O)[C@H](Cc1ccc(C(=O)NCCN)cc1)c1nnn[nH]1 [Example 276, (2S)-2-[(1S)-2-{4-[(2-aminoethyl)carbamoyl]phenyl}-1-(1H-tetrazol-5-yl)ethyl]pentanoic acid] |  |  |  |  |  |  |  | 25 µM | 12.5 µM | 100 µM | 1100 nM | 8.4 nM | 5400 nM | 
16 | CCC[C@H](C(=O)O)[C@H](Cc1ccc(NCC(=O)N(C)C)cc1)c1nn[nH]n1 [Example 218, (2S)-2-[(1S)-2-(4-{[2-(dimethylamino)-2-oxoethyl]amino}phenyl)-1-(2H-tetrazol-5-yl)ethyl]pentanoic acid] | 50 µM | 25 µM |  | 40 nM | 21 nM | 460 nM |  |  |  |  |  |  |  | 31 µM
17 | CC(C)(C)[C@H](C(=O)O)[C@H](Cc1ccccc1)c1nnn[nH]1 [Example 258, (2R,3S)-2-(tert-butyl)-4-phenyl-3-(1H-tetrazol-5-yl)butanoic acid] |  |  |  |  |  |  |  | 100 µM | 11 µM | 2.3 µM | 91 nM | 100 nM | 35 nM | 
18 | CCC[C@H](C(=O)O)[C@H](Cc1cccc(C#N)c1)c1nn[nH]n1 [Example 41, (2S)-2-[(1S)-2-(3-cyanophenyl)-1-(1H-tetrazol-5-yl)ethyl]pentanoic acid] | 18.8 µM | 37.5 µM |  | 60 nM | 0.87 nM | 590 nM |  |  |  |  |  |  |  | 18.8 µM
19 | CC(C)C[C@H](C(=O)O)[C@H](Cc1ccc(-c2ccc(CO)cc2)cn1)c1nn[nH]n1 [Example 171, (2S)-2-[(1S)-2-{5-[4-(hydroxymethyl)phenyl]pyridin-2-yl}-1-(2H-tetrazol-5-yl)ethyl]-4-methylpentanoic acid] | 200 µM | 62 µM |  | 47 nM | 56 nM | 740 nM |  |  |  |  |  |  |  | 75 µM
